Reference: US4638005A, “Monoquaternized pyrazinium compounds and their use as electron carriers in photosynthetic processes” (The Coca-Cola Company, priority 1983, dated 1987)
Structures can show the parent of a compound that is named as a salt.

Experiments:
nitrogenase [1] = biological target: T1, nitrogenase (Azotobacter vinelandii, UniProt P00459); test: Chloroplast-coupled reduction of acetylene to ethylene by nitrogenase (electron carrier bioassay of Benemann); format: biochemical; conditions: for ACTIVITY RELATIVE TO FERREDOXIN (%) / ACTIVITY (nmoles C2 H4 /mg protein/min): Table I; for ACTIVITY RELATIVE TO FERREDOXIN (%): acetylene reduction to ethylene; for ACTIVITY (nmoles C2 H4 /mg protein/min): illuminated spinach chloroplasts, synthetic carriers 2 mM, clostridial ferredoxin 0.2 mM; for ETHYLENE FORMATION % Ferredoxin Activity: Table III ranking; for % FERREDOXIN ACTIVITY: Table IV, acetylene reduction
T1 construct: the nitrogenase sample was prepared from a culture of Azotobacter vinelandii; endogenous in cells; host or cells: Azotobacter vinelandii culture; French press lysate, 10,000 x g supernatant (crude)
T1 sequence (P00459 2-290 limits assumed): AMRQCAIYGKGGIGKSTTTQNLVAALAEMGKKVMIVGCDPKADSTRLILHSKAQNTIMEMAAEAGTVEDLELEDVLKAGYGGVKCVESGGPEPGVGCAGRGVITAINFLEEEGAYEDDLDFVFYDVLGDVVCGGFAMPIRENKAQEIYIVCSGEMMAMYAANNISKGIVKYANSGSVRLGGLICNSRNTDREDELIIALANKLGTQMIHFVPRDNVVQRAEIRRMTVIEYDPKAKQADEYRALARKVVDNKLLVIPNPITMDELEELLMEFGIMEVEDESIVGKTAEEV
Protocol: The activity of the pyrazinium compounds as electron carriers in an illuminated photocouple process using isolated chloroplasts and the reductive enzyme catalyst nitrogenease has been determined using the bioassay of Benemann, et al., Proc. Natl. Acad. Sci. USA, 64, 1079(1969). In this method, the carrier activity is measured as a function of nitrogenase reduction of acetylene to ethylene, the rate of production of ethylene being the direct measurement.
(§1) For the bioassay, the nitrogenase sample was prepared from a culture of Azotobacter vinelandii grown to a cell density of about 1 g/l. The cells harvested by centrifugation were broken in a French press, cell debris spun off at 10,000 XG for 1 hr., and the supernatant containing 40 mg/ml protein was used in the bioassay experiments. […] chloroplasts from spinach leaves as described by Benemann were also used. The synthetic carriers were tested in aqueous solutions at concentrations of 2 mM, while the standard, clostridial ferredoxin, was used in 0.2 mM aqueous solution. The concentrations of carriers in the assay mixtures were chosen so as to guarantee carrier saturation conditions. Thus, the observed differences in rates of ethylene production from the substrate acetylene were assigned directly to variations in the efficiency of electron transfer from the illuminated chloroplast to the nitrogenase. The results obtained for acetylene reduction (nitrogen fixation) using the pyrazinium compounds of Examples 1 through 42 are summarized in Table I and are expressed as nmoles of ethylene produced per mg protein per minute.

nitrogenase [2] = biological target: T1, nitrogenase; test: Chloroplast-coupled evolution of hydrogen by nitrogenase in the absence of substrate; format: biochemical; conditions: for ACTIVITY RELATIVE TO FERREDOXIN (%) / ACTIVITY (nmoles H2 /mg protein/min): Table II, hydrogen evolution; for ACTIVITY (nmoles H2 /mg protein/min): no nitrogen or acetylene, synthetic carriers 2 mM, ferredoxin 0.2 mM
Protocol: as §1
It has been recognized for sometime the connection existing between hydrogen metabolism and nitrogen fixation. […] When nitrogenase was purified extensively, as mentioned above, it became apparent that in addition to nitrogen, nitrogenase also catalyzed the reduction of protons. The evolution of hydrogen is particularly active in the absence of the normal substrates for nitrogenase (nitrogen, acetylene, cyanide, azide, etc.), and is dependent upon a strong reductant and adenosine triphosphate hydrolysis. Since hydrogen evolution is not inhibited by CO, but reduction of nitrogen and other substrates is, the reduction of protons presumably occurs at a site other than the site of nitrogen reduction, H. C. Winter, et. al., Ann Rev. Biochem, 45, 409 (1976). Accordingly, with the same bioassay system and with exclusion of nitrogen, and acetylene, the activity of the pyrazinium compounds to act as carriers for production of hydrogen has been determined.
The results of this study, which are summarized in Table II, indicate that the pyrazinium salts that mediate the reduction of acetylene with electrons from the photoexcited chloroplast, are also mediating the reduction of protons by the nitrogenase.

[3] = Polarographic half-wave potential (first wave reduction); format: physicochemical; conditions: 0.1 M phosphate buffer pH 7.55, 25° C.
Source text: Sci., 65, 1471(1976). Therefore, it was of interest to measure polarographically the half-wave potentials of the several pyrazinium salts under consideration, to determine the possible effect of structure upon their redox potentials.

SMILES | ACTIVITY RELATIVE TO FERREDOXIN (%) (nitrogenase [1]) | ACTIVITY (nmoles C2 H4 /mg protein/min) (nitrogenase [1]) | ETHYLENE FORMATION % Ferredoxin Activity (nitrogenase [1]) | % FERREDOXIN ACTIVITY (nitrogenase [1]) | ACTIVITY RELATIVE TO FERREDOXIN (%) (nitrogenase [2]) | ACTIVITY (nmoles H2 /mg protein/min) (nitrogenase [2]) | E1/2 vs. SCE (mV) [3] | HYDROGEN EVOLUTION % Ferredoxin Activity (nitrogenase [2]; Table III ranking)
C[n+]1ccnc(CCC(=O)O)c1.[I-] [Compound 3900, 1-Methyl-3-(2-carboxyethyl)pyrazinium iodide] | 27% | 3.7 nmoles C2 H4 /mg protein/min | 27% |  | 45% | 11.9 nmoles H2 /mg protein/min |  | 
C[n+]1ccnc(C(C)(C)[N+](=O)[O-])c1.[I-] [Compound 3700, 1-Methyl-3-(1-nitroisopropyl)pyrazinium iodide] | 31% | 4.2 nmoles C2 H4 /mg protein/min | 31% | 31% | 32% | 8.6 nmoles H2 /mg protein/min | -701 mV | 
C[n+]1ccnc(C(CC(O)CO)CC(O)CO)c1 (centres unmarked) [Compound 1700, 1-Methyl-3-[4-(1,2,6,7-tetrahydroxyheptyl)]pyrazinium iodide] | 33% | 4.5 nmoles C2 H4 /mg protein/min | 33% | 33% | 62% | 16.6 nmoles H2 /mg protein/min | -715 mV | 
CCC(O)Cc1c[n+](C)ccn1.[I-] (centres unmarked) [Compound 3400, 1-Methyl-3-(2-hydroxybutyl)pyrazinium iodide] | 20% | 2.7 nmoles C2 H4 /mg protein/min | 20% | 20% | 111% | 29.7 nmoles H2 /mg protein/min | -680 mV | 
C[n+]1ccnc(C(O)CO)c1.[I-] (centres unmarked) [Compound 2200, 1-Methyl-3-(1,2-dihydroxyethyl)pyrazinium iodide] | 55% | 7.5 nmoles C2 H4 /mg protein/min | 55% | 55% | 98% | 26.2 nmoles H2 /mg protein/min | -704 mV | 
C[n+]1ccnc(CCC(O)CO)c1.[I-] (centres unmarked) [Compound 1500, 1-Methyl-3-(3,4-dihydroxybutyl)pyrazinium iodide] | 41% | 5.5 nmoles C2 H4 /mg protein/min | 41% | 41% | 86% | 22.9 nmoles H2 /mg protein/min | -683 mV | 
O=C(O)CC[n+]1ccncc1.[Br-] [Compound 800, 1-(2-Carboxyethyl)pyrazinium bromide] | 50% | 6.8 nmoles C2 H4 /mg protein/min | 50% | 50% | 28% | 7.5 nmoles H2 /mg protein/min | -625 mV | 
CC(=O)NCCc1c[n+](C)ccn1.[I-] [Compound 3800, 1-Methyl-3-(2-acetamidoethyl)pyrazinium iodide] | 15% | 2.0 nmoles C2 H4 /mg protein/min | 15% | 15% | 22% | 5.8 nmoles H2 /mg protein/min | -681 mV | 
C[n+]1ccnc(C(CCCS(=O)(=O)[O-])CCCS(=O)(=O)O)c1 (centres unmarked) [Compound 1800, 4-(1-Methyl-3-pyrazinyl)heptane-1,7-disulfonate sodium salt] | 124% | 16.7 nmoles C2 H4 /mg protein/min | 124% | 124% | 129% | 34.4 nmoles H2 /mg protein/min | -683 mV | 
COC(=O)CCc1c[n+](C)ccn1.[I-] [Compound 3901, 1-methyl-3-(2-carbomethoxyethyl)pyrazinium iodide] | 22% | 3.0 nmoles C2 H4 /mg protein/min | 22% | 22% | 26% | 6.9 nmoles H2 /mg protein/min | -685 mV | 

Results, then the compound that gave them:

ACTIVITY RELATIVE TO FERREDOXIN (%) (nitrogenase [1]) | ACTIVITY (nmoles C2 H4 /mg protein/min) (nitrogenase [1]) | ETHYLENE FORMATION % Ferredoxin Activity (nitrogenase [1]) | % FERREDOXIN ACTIVITY (nitrogenase [1]) | ACTIVITY RELATIVE TO FERREDOXIN (%) (nitrogenase [2]) | ACTIVITY (nmoles H2 /mg protein/min) (nitrogenase [2]) | E1/2 vs. SCE (mV) [3] | HYDROGEN EVOLUTION % Ferredoxin Activity (nitrogenase [2]; Table III ranking) | SMILES
2% | 0.3 nmoles C2 H4 /mg protein/min | 2% | 2% | 8% | 2.2 nmoles H2 /mg protein/min | -700 mV |  | CCc1c[n+](C)ccn1 [Compound 4900]
0% | 0.0 nmoles C2 H4 /mg protein/min | 0% | 0% | 0% | 0.0 nmoles H2 /mg protein/min | -613 mV |  | C[n+]1ccnc(C(=O)O)c1 [Compound 4400]
0% | 0.0 nmoles C2 H4 /mg protein/min | 0% | 0% | 0% | 0.0 nmoles H2 /mg protein/min | -479 mV |  | C[n+]1ccnc(C(N)=O)c1 [Compound 4600]
 | 1.8 nmoles C2 H4 /mg protein/min | 13% | 13% |  | 2.8 nmoles H2 /mg protein/min |  | 10% | C=Cc1c[n+](C)ccn1 [Compound 5100]
0% | 0.0 nmoles C2 H4 /mg protein/min | 0% | 0% | 0% | 0.0 nmoles H2 /mg protein/min | -390 mV |  | COC(=O)c1c[n+](C)ccn1 [Compound 4500]
